From patent publication US8846746B2, “Pyrazole compound and pharmaceutical use thereof” (Japan Tobacco Inc., priority 2011, dated 2014)

Molecular target: human SGLT1 (Homo sapiens (Human), UniProt P13866)
Assay: SGLT1 inhibitory activity: 14C-AMG uptake into CHO-K1 cell line stably expressing human SGLT1
Format: cell-based
Conditions: 14C-AMG uptake, CHO-K1 cells expressing human SGLT1
Procedure: SGLT1 inhibitory activity of a test compound (IC50 value) was calculated based on an amount of intake into a cell of labeled α-methyl-D-glucopyranoside (^14C-AMG) which is transported by SGLT1.
1) Construction of Human SGLT1 Expression Plasmid
A DNA fragment containing human SGLT1, wherein NheI recognition and cleavage sequence was added upstream of a Kozac consensus sequence of the vector; and a stop codon (TAG) and a SalI recognition and cleavage sequence was added just downstream of a coding region of the human SGLT1, was amplified by PCR using pCMV6-hSGLT1 (OriGene) as a template. The purified DNA fragment was cleaved by restriction enzymes NheI and SalI, and the obtained fragment was ligated into pcDNA3.1 (+) which was cleaved by NheI and XhoI to construct human SGLT1 expression plasmid.
2) Establishment of Stable Cell Lines Expressing Human SGLT1
A human SGLT1 expression plasmid pcDNA-hSGLT1 was transfected into CHO-K1 cells by Lipofectamine-2000 (Invitrogen). The cells were cultured in the presence of G418 (Nakalai tesque) and drug-resistant cells were selected. A cell line having the highest S/B ratio of an amount of ^14C-AMG uptake per cell treated by solvent to an amount of ^14C-AMG uptake per cell treated by phlorizin (SGLT inhibitor) was selected from the drug-resistant cells as a stable cell lines expressing human SGLT1.
3) Evaluation of SGLT1 Inhibitory Activity
The stable cell line expressing human SGLT1 was seeded at 5×10^4 cells/well on BioCoat™ Poly-D-Lysine 96 well plate with Lid (Becton Dickinson and Company) and cultured at 37° C. under 5% CO2 overnight. The medium was replaced with 100 μL/well of a Na (−) buffer (140 mM choline chloride, 2 mM KCl, 1 mM MgCl2, 1 mM CaCl2, 10 mM HEPES, 5 mM Tris, pH7.4) followed by incubation for 20 minutes at 37° C. under 5% CO2. After removing the Na (−) buffer, a test compound solution which was prepared from Na (+) buffer (140 mM NaCl, 2 mM KCl, 1 mM MgCl2, 1 mM CaCl2, 10 mM HEPES, 5 mM Tris, pH7.4) containing BSA was added thereto at 40 μL/well. In addition, Na (+) buffer containing 8 kBq of ^14C-AMG and 2 mM AMG was added thereto at 40 μL/well, and was mixed well. Na (−) buffer containing BSA was added to a blank well at 40 μL/well and additionally adding a Na (+) buffer containing 8 kBq of ^14C-AMG and 2 mM AMG, and was mixed well. Cells were incubated for 1 hour at 37° C. under 5% CO2. After the reaction, the cells were washed twice with 100 μL/well of iced wash buffer (100 mM AMG, 140 mM choline chloride, 2 mM KCl, 1 mM MgCl2, 1 mM CaCl2, 10 mM HEPES, 5 mM Tris, pH7.4), then lysed in 50 μL/well of a 0.2N aqueous solution of NaOH. The cell lysate was transferred to OptiPlate96 (Perkin-Elmer) and 100 μL/well of MicroScint-40 (Perkin-Elmer) was dispensed. The radioactivity was counted by TOPCOUNT NXT (Perkin-Elmer).
A data was obtained by deducting the average value (CPM) of blank wells from the average value (CPM) of each treated well. The inhibition ratio (%) was calculated by the following formula: inhibition rate (%)=[(A−B)/A]×100, where A is a data of the solvent control, and B is a data of a test compound.

Sequence of human SGLT1 (P13866 whole entry): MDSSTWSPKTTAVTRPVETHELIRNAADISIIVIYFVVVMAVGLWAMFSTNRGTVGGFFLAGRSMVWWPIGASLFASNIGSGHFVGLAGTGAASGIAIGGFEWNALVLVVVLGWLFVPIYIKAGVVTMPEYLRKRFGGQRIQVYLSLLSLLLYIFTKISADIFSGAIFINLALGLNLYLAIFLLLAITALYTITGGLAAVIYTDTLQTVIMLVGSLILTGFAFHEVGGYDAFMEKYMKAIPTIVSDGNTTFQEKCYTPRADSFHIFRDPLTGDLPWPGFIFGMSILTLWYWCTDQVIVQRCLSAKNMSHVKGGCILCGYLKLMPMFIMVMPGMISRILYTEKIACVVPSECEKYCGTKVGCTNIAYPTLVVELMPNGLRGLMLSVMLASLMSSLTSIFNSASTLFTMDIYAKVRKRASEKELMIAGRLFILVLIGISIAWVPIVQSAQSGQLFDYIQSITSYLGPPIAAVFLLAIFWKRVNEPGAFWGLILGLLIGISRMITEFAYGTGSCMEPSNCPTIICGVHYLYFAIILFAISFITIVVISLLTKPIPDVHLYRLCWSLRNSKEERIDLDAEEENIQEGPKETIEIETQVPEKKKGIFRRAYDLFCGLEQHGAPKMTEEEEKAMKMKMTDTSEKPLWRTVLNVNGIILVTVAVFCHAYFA

| IC50 | Structure (SMILES) |
| --- | --- |
| 12 nM | COC(C)(C)c1cccc(-c2cc(NC(=O)[C@H]3CNC(=O)C3)nn2-c2ccccc2)c1 [Example 82] |
| 11 nM | COC(C)(C)c1cccc(-c2cc(NC(=O)[C@@H]3CNC(=O)C3)nn2-c2ccccc2)c1 [Example 83] |
| 7.2 nM | CC(C)(C)c1cccc(-c2cc(NC(=O)[C@H]3CNC(=O)C3)nn2C2CCCCCC2)c1 [Example 84] |
| 50 nM | O=C1C[C@@H](C(=O)Nc2cc(-c3cccc(OC(F)(F)F)c3)n(C3CCCCCC3)n2)CN1 [Example 85] |
| 54 nM | CCCc1cccc(-c2cc(NC(=O)[C@H]3CNC(=O)C3)nn2C(F)(F)F)c1 [Example 86] |
| 110 nM | CCCc1cccc(-c2cc(NC(=O)[C@@H]3CNC(=O)C3)nn2C(F)(F)F)c1 [Example 87] |
| 25 nM | O=C1C[C@@H](C(=O)Nc2cc(-c3cccc(C4CC4)c3)n(-c3ccccc3)n2)CN1 [Example 92] |
| 31 nM | O=C1C[C@H](C(=O)Nc2cc(-c3cccc(C4CC4)c3)n(-c3ccccc3)n2)CN1 [Example 93] |
| 2.4 nM | CCCc1cccc(-c2cc(NC(=O)[C@H]3CNC(=O)C3)nn2-c2cccc(Cl)c2)c1 [Example 95] |
| 10 nM | CCCc1cccc(-c2cc(NC(=O)[C@@H]3CNC(=O)N3)nn2-c2ccccc2)c1 [Example 97] |
| 30 nM | CCCc1cccc(-c2cc(NC(=O)[C@H]3CNC(=O)C3)nn2Cc2ccccc2)c1 [Example 98] |
| 73 nM | CCCc1cccc(-c2cc(NC(=O)[C@@H]3CNC(=O)C3)nn2Cc2ccccc2)c1 [Example 99] |
| 1.9 nM | CCCc1cccc(-c2cc(NC(=O)[C@H]3CNC(=O)C3)nn2-c2ccccc2Cl)c1 [Example 100] |
| 2.4 nM | CCCc1cccc(-c2cc(NC(=O)[C@@H]3CNC(=O)C3)nn2-c2ccccc2Cl)c1 [Example 101] |
| 2.2 nM | CCCc1cccc(-c2cc(NC(=O)[C@H]3CNC(=O)C3)nn2-c2ccccc2C)c1 [Example 102] |
| 5 nM | CCCc1cccc(-c2cc(NC(=O)[C@H]3CNC(=O)C3)nn2-c2cccc(F)c2)c1 [Example 103] |
| 9.8 nM | CCCc1cccc(-c2cc(NC(=O)[C@@H]3CNC(=O)C3)nn2-c2cccc(F)c2)c1 [Example 104] |
| 37 nM | O=C1C[C@@H](C(=O)Nc2cc(-c3cccc(OC(F)(F)F)c3)n(-c3ccc(Cl)cc3)n2)CN1 [Example 105] |
| 6.8 nM | O=C1C[C@@H](C(=O)Nc2cc(-c3cccc(OC(F)(F)F)c3)n(-c3cccc(Cl)c3)n2)CN1 [Example 106] |
| 44 nM | CCCc1cccc(-c2cc(NC(=O)[C@H]3CNC(=O)C3)nn2CCc2ccccc2)c1 [Example 107] |
| 65 nM | CC(C)(C)c1cccc(-c2cc(NC(=O)[C@H]3CNC(=O)C3)nn2CCc2ccccc2)c1 [Example 109] |
| 85 nM | O=C1C[C@@H](C(=O)Nc2cc(-c3cccc(OC(F)(F)F)c3)n(CCc3ccccc3)n2)CN1 [Example 110] |
| 46 nM | CCCc1cccc(-c2cc(NC(=O)[C@H]3CNC(=O)C3)nn2CC2CCCCC2)c1 [Example 111] |
| 83 nM | CCCc1cccc(-c2cc(NC(=O)[C@@H]3CNC(=O)C3)nn2CC2CCCCC2)c1 [Example 112] |
| 12 nM | CCCc1cccc(-c2cc(NC(=O)[C@H]3CNC(=O)C3)nn2CCC2CCCCC2)c1 [Example 113] |
| 27 nM | CCCc1cccc(-c2cc(NC(=O)[C@@H]3CNC(=O)C3)nn2CCC2CCCCC2)c1 [Example 114] |

| IC50 | Structure (SMILES) |
| --- | --- |
| 9300 nM | O=C1C[C@@H](C(=O)Nc2cc(-c3cccc(O)c3)n(-c3ccccc3)n2)CN1 [Example 118] |
| 570 nM | O=C1C[C@@H](C(=O)Nc2cc(-c3cccc(CO)c3)n(-c3ccccc3)n2)CN1 [Example 119] |
| 11 nM | CCCc1cccc(-c2cc(NC(=O)[C@H]3CNC(=O)C3)nn2-c2ccc(OC)cc2)c1 [Example 121] |
| 5 nM | CCCc1cccc(-c2cc(NC(=O)[C@H]3CNC(=O)C3)nn2-c2cccc(OC)c2)c1 [Example 123] |
| 170 nM | CCCc1cccc(-c2cc(NC(=O)[C@H]3CNC(=O)C3)nn2-c2cccc(OCC(=O)O)c2)c1 [Example 124] |
| 17 nM | CCCc1cccc(-c2cc(NC(=O)[C@@H]3CNC(=O)N3C)nn2-c2ccccc2)c1 [Example 125] |
| 1.2 nM | CC(C)(C)c1cccc(-c2cc(NC(=O)[C@H]3CNC(=O)C3)nn2-c2cccc(Cl)c2)c1 [Example 126] |
| 1.4 nM | Cc1cccc(-n2nc(NC(=O)[C@H]3CNC(=O)C3)cc2-c2cccc(C(C)(C)C)c2)c1 [Example 127] |
| 17 nM | O=C1C[C@@H](C(=O)Nc2cc(-c3cccc(OC(F)(F)F)c3)n(CCC3CCCCC3)n2)CN1 [Example 128] |
| 28 nM | CC(C)(C)c1cccc(-c2cc(NC(=O)[C@H]3CNC(=O)C3)nn2CCC2CCCCC2)c1 [Example 129] |
| 1.3 nM | O=C1C[C@@H](C(=O)Nc2cc(-c3cccc(OC(F)(F)F)c3)n(-c3ccccc3Cl)n2)CN1 [Example 130] |
| 6.3 nM | O=C1C[C@@H](C(=O)Nc2cc(-c3cccc(OC(F)(F)F)c3)n(-c3ccccc3F)n2)CN1 [Example 131] |
| 0.9 nM | CC(C)(C)c1cccc(-c2cc(NC(=O)[C@H]3CNC(=O)C3)nn2-c2ccccc2Cl)c1 [Example 132] |
| 11 nM | CCCc1cccc(-c2cc(NC(=O)[C@H]3CNC(=O)C3)nn2-c2ccccc2OC)c1 [Example 133] |
| 6.8 nM | CCCc1cccc(-c2cc(NC(=O)[C@H]3CNC(=O)C3)nn2CCC(C)(C)C)c1 [Example 134] |
| 11 nM | CCCc1cccc(-c2cc(NC(=O)[C@H]3CNC(=O)C3)nn2CCC(C)C)c1 [Example 135] |
| 28 nM | CCCc1cccc(-c2cc(NC(=O)[C@H]3CNC(=O)C3)nn2C2CCOCC2)c1 [Example 136] |
| 14 nM | CCCc1cccc(-c2cc(NC(=O)[C@H]3CNC(=O)C3)nn2CCC2CCCC2)c1 [Example 137] |
| 1.5 nM | CC(C)C(F)(F)c1cccc(-c2cc(NC(=O)[C@H]3CNC(=O)C3)nn2-c2ccccc2)c1 [Example 138] |
| 1.7 nM | CCC(F)(F)c1cccc(-c2cc(NC(=O)[C@H]3CNC(=O)C3)nn2-c2cccc(Cl)c2)c1 [Example 139] |
| 1.1 nM | CCC(F)(F)c1cccc(-c2cc(NC(=O)[C@H]3CNC(=O)C3)nn2-c2ccccc2Cl)c1 [Example 140] |
| 5.5 nM | CCC(F)(F)c1cccc(-c2cc(NC(=O)[C@H]3CNC(=O)C3)nn2-c2ccc(Cl)cc2)c1 [Example 141] |
| 9.2 nM | CCC(F)(F)c1cccc(-c2cc(NC(=O)[C@H]3CNC(=O)C3)nn2CCC(C)C)c1 [Example 142] |
| 6.5 nM | CCC(F)(F)c1cccc(-c2cc(NC(=O)[C@H]3CNC(=O)C3)nn2CCC(C)(C)C)c1 [Example 143] |
| 1.3 nM | CCC(F)(F)c1cccc(-c2cc(NC(=O)[C@H]3CNC(=O)C3)nn2-c2ccccc2C)c1 [Example 144] |

Same assay, conditions: CHO-K1, at 0.1 uM

| inhibition at 0.1 µM | Structure (SMILES) |
| --- | --- |
| 45% | CCCc1cccc(-c2cc(NC(=O)[C@@H]3CNC(=O)C3)nn2CCc2ccccc2)c1 [Example 108] |

Same assay, conditions: CHO-K1, at 0.3 uM

| inhibition at 0.3 µM | Structure (SMILES) |
| --- | --- |
| 43% | CC(C)(O)c1cccc(-c2cc(NC(=O)[C@@H]3CNC(=O)C3)nn2-c2ccccc2)c1 [Example 81] |

Same assay, conditions: CHO-K1, at 1 uM

| inhibition at 1 µM | Structure (SMILES) |
| --- | --- |
| 9% | CCCc1cc(-c2cc(NC(=O)[C@H]3CNC(=O)C3)nn2-c2ccccc2)ccc1OCC(=O)O [Example 122] |
| 43% | CCCc1cc(C(=O)O)cc(-c2cc(NC(=O)[C@H]3CNC(=O)C3)nn2-c2ccccc2)c1 [Example 145] |
